According to patent US20080260774A1, “Alpha-galactosyl ceramide analogs and their use as immunotherapies” (priority 2007, published 2008):

Tested on: HA-specific peptide (9-mer)
Details: mouse, in vivo

With CCCCCCCCCCCCCCCCCCCCCCCCCC(=O)N[C@@H](CO[C@H]1O[C@H](CO)[C@H](O)[C@H](O)[C@H]1O)[C@H](O)[C@H](O)CCCCCCCCCCCCCC [C1, α-Galactosyl ceramide, reference compound] as the molecule, how does the IFN-γ secreting cells read?
Its IFN-γ secreting cells is “increased”.
